Test results: ChEMBL document CHEMBL1201862, “PubChem BioAssay data set” (2004)
Activity calls are given as the source filed them.

What was measured:
[1] = inhibitors of firefly luciferase expression or activity, dose response, H4 neuroglioma cells, luminescence (AID 1990); format: functional, cell-based
[2] = system: BJ; experiment: cytotoxicity toward BJ-TERT fibroblasts, dose response, cell-based, RAS-independent, luminescence (AID 1933); format: functional; details: Homo sapiens
[3] = Luminescence Cell-Based Dose Response HTS to Identify Inhibitors of 5'UTR Stem-Loop Driven Prion Protein mRNA Translation in H4 Neuroglioblastoma Cells. [Related pubchem assays: 1827 (Project Summary), 1813 (Primary HTS)]; format: functional
[4] = inhibitors of SNCA 5'UTR-driven reporter translation, confirmation, H4 neuroglioma cells, luminescence (AID 1988); format: functional, cell-based
[5] = system: BJ; experiment: cells; format: functional, cell-based; details: Homo sapiens
[6] = system: J774.A1; experiment: Confirmation of image-based Screening Assay for Inhibitors of Phagocytosis. [Related pubchem assays (depositor defined):AID1029, AID1643]; format: functional, cell-based; details: Mus musculus
[7] = system: BJ; experiment: cytotoxicity toward BJ-TERT-LT-ST fibroblasts, dose response, cell-based, RAS-independent, luminescence (AID 1935); format: functional; details: Homo sapiens;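 note: BJ fibroblasts immortalized with TERT plus LT and ST oncogenes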
[8] = cytotoxicity toward DRD oncogenic fibroblasts, dose response, cell-based, non-viral oncogenic, luminescence (AID 1934); format: functional; details: Homo sapiens
[9] = target: E3 ubiquitin-protein ligase Mdm2/Protein Mdm4 (Homo sapiens, UniProt O15151+Q00987); experiment: Mdm2-MdmX interaction inhibitors, dose response, luminescence detection (AID 504593); format: functional
E3 ubiquitin-protein ligase Mdm2/Protein Mdm4, sequence (Q00987 whole entry): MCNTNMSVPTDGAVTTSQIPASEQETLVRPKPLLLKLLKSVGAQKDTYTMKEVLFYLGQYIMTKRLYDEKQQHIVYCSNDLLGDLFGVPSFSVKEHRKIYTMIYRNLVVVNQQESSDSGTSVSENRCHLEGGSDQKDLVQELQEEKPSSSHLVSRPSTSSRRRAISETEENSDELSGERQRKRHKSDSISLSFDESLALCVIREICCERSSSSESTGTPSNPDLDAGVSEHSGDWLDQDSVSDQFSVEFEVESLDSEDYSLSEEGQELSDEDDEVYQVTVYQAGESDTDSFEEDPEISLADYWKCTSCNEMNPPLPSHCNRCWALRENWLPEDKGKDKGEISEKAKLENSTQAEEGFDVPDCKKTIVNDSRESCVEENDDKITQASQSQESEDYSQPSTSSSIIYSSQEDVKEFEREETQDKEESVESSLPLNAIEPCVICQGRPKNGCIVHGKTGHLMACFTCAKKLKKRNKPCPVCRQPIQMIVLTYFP
E3 ubiquitin-protein ligase Mdm2/Protein Mdm4, sequence (O15151 whole entry): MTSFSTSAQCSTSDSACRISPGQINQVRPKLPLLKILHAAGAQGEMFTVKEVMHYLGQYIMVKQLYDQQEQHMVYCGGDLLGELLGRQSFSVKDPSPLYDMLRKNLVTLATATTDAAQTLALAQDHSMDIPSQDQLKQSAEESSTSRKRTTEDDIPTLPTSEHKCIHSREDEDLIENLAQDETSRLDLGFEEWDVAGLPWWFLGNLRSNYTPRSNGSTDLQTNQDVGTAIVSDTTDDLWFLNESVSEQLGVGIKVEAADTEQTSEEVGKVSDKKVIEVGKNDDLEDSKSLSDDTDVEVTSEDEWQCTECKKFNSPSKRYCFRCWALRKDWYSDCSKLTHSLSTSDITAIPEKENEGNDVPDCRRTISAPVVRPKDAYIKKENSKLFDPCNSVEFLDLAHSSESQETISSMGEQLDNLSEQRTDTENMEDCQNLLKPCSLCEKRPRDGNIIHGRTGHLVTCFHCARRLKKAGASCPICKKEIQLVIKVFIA

[10] = cytotoxicity in HEK-293T cells, dose response, cytotoxicity control for TCR NF-kB inhibitor project, luminescence, T-cell screen hits (AID 489026); format: functional, cell-based;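 note: cells exposed to compound about 14 hours before the viability readout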
[11] = target: T1, Replicative DNA helicase DnaB (Mycobacterium tuberculosis, UniProt P9WMR3); experiment: DnaB intein splicing inhibitors, dose response, biochemical, cell-free fluorescence (AID 449749); format: functional
T1 sequence (P9WMR3 whole entry): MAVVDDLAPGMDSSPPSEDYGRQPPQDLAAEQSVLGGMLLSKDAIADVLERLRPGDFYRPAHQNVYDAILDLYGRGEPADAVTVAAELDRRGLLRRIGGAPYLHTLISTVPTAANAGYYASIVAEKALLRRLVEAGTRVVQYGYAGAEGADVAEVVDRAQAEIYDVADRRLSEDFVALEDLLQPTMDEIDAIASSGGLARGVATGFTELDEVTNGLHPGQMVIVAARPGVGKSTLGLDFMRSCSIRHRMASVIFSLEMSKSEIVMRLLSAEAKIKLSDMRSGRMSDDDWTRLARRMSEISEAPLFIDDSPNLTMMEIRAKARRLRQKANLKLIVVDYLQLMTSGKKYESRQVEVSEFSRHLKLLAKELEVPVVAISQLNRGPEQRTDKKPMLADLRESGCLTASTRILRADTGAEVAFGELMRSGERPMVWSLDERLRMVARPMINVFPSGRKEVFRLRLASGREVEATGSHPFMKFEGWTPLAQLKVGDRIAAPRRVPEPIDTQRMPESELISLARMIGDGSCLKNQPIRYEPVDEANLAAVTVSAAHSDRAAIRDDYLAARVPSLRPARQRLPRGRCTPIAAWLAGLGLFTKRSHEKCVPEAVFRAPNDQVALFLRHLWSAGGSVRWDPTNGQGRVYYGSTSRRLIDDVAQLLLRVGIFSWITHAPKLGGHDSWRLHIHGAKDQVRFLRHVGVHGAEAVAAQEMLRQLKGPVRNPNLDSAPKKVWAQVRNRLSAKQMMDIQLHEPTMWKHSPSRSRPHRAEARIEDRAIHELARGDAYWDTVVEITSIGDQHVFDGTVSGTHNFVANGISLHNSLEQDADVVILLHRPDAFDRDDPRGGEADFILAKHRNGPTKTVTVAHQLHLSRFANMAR

[12] = system: BJ; experiment: cytotoxicity toward Ras-transformed BJeLR fibroblasts, dose response, cell-based, alamar blue fluorescence, cherrypicked samples (AID 2631); format: functional; details: Homo sapiens;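 note: confirmatory dose-response assay in RAS-dependent BJ fibroblasts engineered with TERT, LT and ST, with cytotoxicity read by fluorescence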
[13] = target: T2, Protein RecA (Mycobacterium tuberculosis, UniProt P9WHJ3); experiment: Fluorescence Cell-Free Homogeneous Dose Retest to Identify Inhibitors of RecA-Intein Splicing Activity. [Related pubchem assays (depositor defined):AID2097, AID2223, AID489010, AID492950]; format: functional
T2 sequence (P9WHJ3 whole entry): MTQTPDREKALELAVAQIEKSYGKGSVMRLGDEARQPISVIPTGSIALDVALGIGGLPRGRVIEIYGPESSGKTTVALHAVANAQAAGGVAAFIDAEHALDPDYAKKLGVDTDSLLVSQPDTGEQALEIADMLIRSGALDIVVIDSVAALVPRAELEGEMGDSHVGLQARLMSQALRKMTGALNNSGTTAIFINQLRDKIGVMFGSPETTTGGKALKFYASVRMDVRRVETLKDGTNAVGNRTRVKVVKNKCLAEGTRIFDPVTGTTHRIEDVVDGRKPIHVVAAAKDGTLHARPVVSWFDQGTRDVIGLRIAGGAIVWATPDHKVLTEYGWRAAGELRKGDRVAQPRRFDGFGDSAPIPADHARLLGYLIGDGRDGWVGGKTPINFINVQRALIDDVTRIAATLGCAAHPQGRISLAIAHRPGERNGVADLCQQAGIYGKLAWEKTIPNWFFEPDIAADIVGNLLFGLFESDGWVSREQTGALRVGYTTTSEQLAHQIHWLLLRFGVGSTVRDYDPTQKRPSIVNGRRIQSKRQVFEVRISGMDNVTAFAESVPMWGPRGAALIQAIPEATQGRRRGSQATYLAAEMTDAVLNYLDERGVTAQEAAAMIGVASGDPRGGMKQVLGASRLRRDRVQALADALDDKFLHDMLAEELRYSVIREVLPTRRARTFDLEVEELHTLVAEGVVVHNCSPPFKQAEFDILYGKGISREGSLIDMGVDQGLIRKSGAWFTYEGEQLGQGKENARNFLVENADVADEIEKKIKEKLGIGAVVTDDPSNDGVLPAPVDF

[14] = target: Hexokinase (Trypanosoma brucei, UniProt Q38C41); experiment: Confirmation assay for inhibitors of Trypanosoma brucei hexokinase 1-Analogue-first series. [Related pubchem assays (depositor defined):AID1430, AID1632, AID2516, AID2560, AID2579, AID2600, AID449725, AID492951]; format: functional
Hexokinase, sequence (Q38C41 whole entry): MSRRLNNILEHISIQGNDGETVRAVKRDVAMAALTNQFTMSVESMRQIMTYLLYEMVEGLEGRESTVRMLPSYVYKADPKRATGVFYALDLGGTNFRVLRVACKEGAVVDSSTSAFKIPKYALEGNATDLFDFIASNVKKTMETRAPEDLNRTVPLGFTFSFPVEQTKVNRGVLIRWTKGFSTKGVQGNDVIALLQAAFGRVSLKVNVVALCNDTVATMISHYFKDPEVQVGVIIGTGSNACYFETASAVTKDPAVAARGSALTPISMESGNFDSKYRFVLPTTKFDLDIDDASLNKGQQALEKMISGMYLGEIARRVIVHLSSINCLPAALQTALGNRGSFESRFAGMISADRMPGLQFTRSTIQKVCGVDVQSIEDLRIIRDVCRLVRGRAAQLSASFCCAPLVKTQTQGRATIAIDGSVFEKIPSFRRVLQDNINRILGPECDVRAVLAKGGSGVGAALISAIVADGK

[15] = target: Eukaryotic translation initiation factor 4H (Homo sapiens, UniProt Q15056); experiment: eIF4H inhibition in translation initiation, SAR follow-up (AID 435011); format: functional
[16] = target: Polyadenylate-binding protein 1 (Homo sapiens, UniProt P11940); experiment: PABP inhibition in translation initiation, SAR follow-up (AID 435018); format: functional
Polyadenylate-binding protein 1, sequence (P11940 whole entry): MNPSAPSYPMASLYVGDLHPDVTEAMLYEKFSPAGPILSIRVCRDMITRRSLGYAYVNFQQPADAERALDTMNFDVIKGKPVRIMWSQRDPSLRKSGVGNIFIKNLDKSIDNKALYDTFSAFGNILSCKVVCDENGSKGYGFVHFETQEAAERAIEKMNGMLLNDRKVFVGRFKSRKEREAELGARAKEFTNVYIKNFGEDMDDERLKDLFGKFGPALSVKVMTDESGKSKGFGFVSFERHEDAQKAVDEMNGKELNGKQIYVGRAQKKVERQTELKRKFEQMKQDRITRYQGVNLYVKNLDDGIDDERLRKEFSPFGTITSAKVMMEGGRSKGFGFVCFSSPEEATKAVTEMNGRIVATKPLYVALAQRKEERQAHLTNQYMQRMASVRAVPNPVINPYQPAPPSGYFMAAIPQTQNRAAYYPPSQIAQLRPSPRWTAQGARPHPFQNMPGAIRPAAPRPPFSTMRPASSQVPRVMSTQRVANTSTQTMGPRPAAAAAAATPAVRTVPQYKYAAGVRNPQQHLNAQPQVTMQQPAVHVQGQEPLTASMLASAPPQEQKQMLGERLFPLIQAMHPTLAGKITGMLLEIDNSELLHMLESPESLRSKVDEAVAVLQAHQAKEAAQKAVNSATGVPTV

[17] = target: G-protein coupled receptor 35 (Homo sapiens, UniProt Q9HC97); experiment: SAR analysis of Antagonists of the GPR35 Receptor using an Image-Based Assay - Set 5. [Related pubchem assays (depositor defined):AID2058, AID2079]; format: functional
G-protein coupled receptor 35, sequence (Q9HC97 whole entry): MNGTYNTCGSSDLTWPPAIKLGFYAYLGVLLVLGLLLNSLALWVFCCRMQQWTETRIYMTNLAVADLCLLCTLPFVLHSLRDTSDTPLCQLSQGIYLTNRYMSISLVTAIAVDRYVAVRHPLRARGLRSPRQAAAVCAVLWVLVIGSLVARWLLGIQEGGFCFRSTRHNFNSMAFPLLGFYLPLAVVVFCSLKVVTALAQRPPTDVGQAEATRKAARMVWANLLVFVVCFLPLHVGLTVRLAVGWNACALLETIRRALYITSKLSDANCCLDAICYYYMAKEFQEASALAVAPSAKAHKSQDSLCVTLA

[18] = target: G-protein coupled receptor 55 (Homo sapiens, UniProt Q9Y2T6); experiment: SAR Analysis of Selective Antagonists of GPR55 using an Image-Based Assay - Set 3. [Related pubchem assays (depositor defined):AID2058, AID2079]; format: functional
G-protein coupled receptor 55, sequence (Q9Y2T6 whole entry): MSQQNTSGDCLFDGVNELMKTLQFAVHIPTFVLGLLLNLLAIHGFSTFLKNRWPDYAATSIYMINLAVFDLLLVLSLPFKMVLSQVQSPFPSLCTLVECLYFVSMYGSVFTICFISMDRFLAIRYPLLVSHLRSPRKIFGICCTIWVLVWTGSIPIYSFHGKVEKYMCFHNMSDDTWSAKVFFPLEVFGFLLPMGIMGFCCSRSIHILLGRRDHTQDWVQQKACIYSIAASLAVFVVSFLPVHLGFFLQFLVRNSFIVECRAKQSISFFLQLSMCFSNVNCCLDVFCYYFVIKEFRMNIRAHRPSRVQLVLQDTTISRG

Q: With `Cn1nc([N+](=O)[O-])nc1Sc1nnc(-c2ccccc2)o1` as the compound, how does the EC50 [1] read?
A: Its EC50 is > 120 µM (not active).

Q: What about the EC50 [2] of the same compound?
A: Its EC50 is 3.15 µM (active).

Q: And the EC50 [3]?
A: The EC50 was > 120 µM (not active).

Q: And the EC50 [4]?
A: The EC50 was 10.2 µM (active).

Q: And the EC50 [5]?
A: The EC50 was 2.52 µM (active).

Q: What about the IC50 [6] of the same compound?
A: Its IC50 is 0.438 µM (active).

Q: And the EC50 [7]?
A: The EC50 was 43.9 µM (inconclusive).

Q: What about the EC50 [8] of the same compound?
A: Its EC50 is 11.1 µM (active).

Q: What about the IC50 [9] of the same compound?
A: The IC50 was 6.19 µM (active).

Q: What about the IC50 [10] of the same compound?
A: The IC50 was > 80 µM (inactive).

Q: And the AC50 [11]?
A: Its AC50 is 40.3 µM (active).

Q: What about the EC50 [12] of the same compound?
A: Its EC50 is 0.556 µM (active).

Q: What about the EC50 [13] of the same compound?
A: Its EC50 is 10.9 µM (active).

Q: For `O=C(O)c1ccc(Cl)cc1NC(=O)N1CCOCC1`, which IC50 [14] is on record?
A: The IC50 was > 25 µM (inactive).

Q: Which IC50 [15] does the source give for `O=C(CSc1ccc(-c2ccco2)nn1)Nc1ccccc1` here?
A: Its IC50 is 84.4 µM (active).

Q: What about the IC50 [16] of the same compound?
A: The IC50 was > 100 µM (inactive).

Q: Which IC50 [17] does the source give for `COC(=O)c1cnn(-c2ccccc2)c1/C=N/NC(=S)Nc1ccccc1` here?
A: The IC50 was 1.01 µM (active).

Q: And the IC50 [18]?
A: The IC50 was 15.1 µM (inactive).
